Measured values reported in US12630600B2 (MEDIMMUNE LIMITED, priority 2022, dated 2026).
Where two headings read alike, the source gives them in different places. Each block holds one compound with its values, some of them ahead of it. Starred links: 1 amine or outer side, 2 acyl side, 3 side chain; linkers in the order of their positions; H or OH if unused. Non-standard residues stand in square brackets, D forms with d. Residues, ends and D or L forms follow the SMILES beside them. Groups on a side chain read outwards from the residue. *: point of attachment. C18 diacid = O=C(O)CCCCCCCCCCCCCCCCC(=O)*; Dip = N[C@H](C(=O)O)C(c1ccccc1)c1ccccc1; γGlu = O=C(O)[C@H](CCC(=O)[*:2])N[*:1]; Stearoyl = CCCCCCCCCCCCCCCCCC(=O)*; Palmitoyl = CCCCCCCCCCCCCCCC(=O)*; αMeF = C[C@](N)(Cc1ccccc1)C(=O)O; PEG2 = NCCOCCOCCC(=O)O; AEEA = NCCOCCOCC(=O)O; Aib = CC(C)(N)C(=O)O

Columns and labels:
[1] = target: T1, human glucagon receptor (hGCGR) (Homo sapiens, UniProt P47871); experiment: cAMP production (HTRF) in CHO cells expressing human glucagon receptor; format: cell-based
T1 construct: expressed in transfected cells; host or cells: CHO
T1 sequence (P47871 26-477): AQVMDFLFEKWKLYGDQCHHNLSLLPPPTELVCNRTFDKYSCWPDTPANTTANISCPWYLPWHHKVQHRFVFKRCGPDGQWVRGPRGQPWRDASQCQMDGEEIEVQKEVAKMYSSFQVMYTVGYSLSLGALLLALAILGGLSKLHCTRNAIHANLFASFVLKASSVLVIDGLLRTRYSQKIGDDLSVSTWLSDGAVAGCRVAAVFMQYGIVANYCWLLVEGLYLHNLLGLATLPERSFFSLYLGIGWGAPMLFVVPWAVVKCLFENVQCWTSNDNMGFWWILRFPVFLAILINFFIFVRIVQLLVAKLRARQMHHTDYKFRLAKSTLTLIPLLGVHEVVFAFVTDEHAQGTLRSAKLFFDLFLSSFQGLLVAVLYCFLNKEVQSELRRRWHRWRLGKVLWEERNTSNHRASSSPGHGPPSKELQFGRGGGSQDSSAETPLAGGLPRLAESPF
Description: Cells were re-suspended in assay buffer at a batch-dependent optimized concentration (typically hGLP-1R cells at 1×10^5 cells/mL, hGCGR cells at 2×10^5 cells/mL).
Cells were added to the assay plate using a multidrop dispenser and incubated at room temperature for 30 minutes before measuring the cAMP level using a cAMP dynamic 2 homogeneous time resolved Fluorescence (HTRF) kit (Cisbio Bioassays #62AM4PEJ) following the two-step protocol as per manufacturer's recommendations. In brief, anti-cAMP cryptate (donor fluorophore) and cAMP-d2 (acceptor fluorophore) were made up separately by diluting each 1 in 20 in conjugate and lysis buffer provided in the kit. Anti-cAMP cryptate was added to all wells of the assay plate, followed by cAMP-d2 added to all wells except non-specific binding (NSB) wells (to which conjugate and lysis buffer was added).
Data was transformed to % Delta F as described in the manufacturer's guidelines and analyzed by 4-parameter logistic fit to determine EC50 values.

[2] = target: T2, human GLP-1 receptor (hGLP-1R) (Homo sapiens, UniProt P43220); experiment: cAMP production (HTRF) in CHO cells expressing human GLP-1 receptor; format: cell-based; conditions: for EC50: cAMP, geometric mean; for % Relative Potency Ratio: % GLP-1R activity relative to GLP-1 / % GlucR activity relative to glucagon
T2 construct: expressed in transfected cells; host or cells: CHO
T2 sequence (P43220 24-463): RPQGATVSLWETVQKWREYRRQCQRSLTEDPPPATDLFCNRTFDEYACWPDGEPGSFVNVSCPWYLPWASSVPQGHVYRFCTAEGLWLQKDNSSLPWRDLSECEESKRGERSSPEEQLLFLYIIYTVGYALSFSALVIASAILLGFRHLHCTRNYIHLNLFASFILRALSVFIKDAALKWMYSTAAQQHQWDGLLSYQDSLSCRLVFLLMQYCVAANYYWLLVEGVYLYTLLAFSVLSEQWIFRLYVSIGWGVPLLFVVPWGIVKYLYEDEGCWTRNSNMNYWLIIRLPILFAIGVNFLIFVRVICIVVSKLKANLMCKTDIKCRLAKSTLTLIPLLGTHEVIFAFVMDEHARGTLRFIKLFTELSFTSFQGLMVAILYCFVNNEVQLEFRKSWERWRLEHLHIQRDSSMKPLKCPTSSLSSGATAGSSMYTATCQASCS

[3] = hGluc-R EC50 (pM), Table 8, peptides modified at position 24, geometric mean, CHO cells
[4] = hGLP-1R EC50 (pM), Table 8, peptides modified at position 24, CHO cells
[5] = Table 9, peptides modified at position 10, geometric mean, CHO cells, read-out: hGluc-R EC50

EC50 ([1]; Table 7, modification at position 20, CHO cells expressing hGCGR, geometric mean, read-out: hGluc-R EC50): 595 pM
EC50 ([2]; Table 7, modification at position 20, CHO cells expressing hGLP-1R, read-out: hGLP-1R EC50): 43.3 pM
% Relative Potency Ratio ([2]; Table 7): 27.2
Compound: CC[C@H](C)[C@H](NC(=O)[C@H](Cc1c[nH]c2ccccc12)NC(=O)[C@H](CCC(N)=O)NC(=O)[C@@H](NC(=O)[C@H](Cc1ccccc1)NC(=O)[C@H](CC(=O)O)NC(=O)[C@H](CCCCNC(=O)COCCOCCNC(=O)COCCOCCNC(=O)CC[C@H](NC(=O)CCCCCCCCCCCCCCCCC(=O)O)C(=O)O)NC(=O)[C@H](C)NC(=O)[C@H](C)NC(=O)[C@H](CCCNC(=N)N)NC(=O)[C@H](CO)NC(=O)[C@H](CC(=O)O)NC(=O)[C@H](CC(C)C)NC(=O)[C@](C)(Cc1ccccc1)NC(=O)[C@H](CCCCN)NC(=O)[C@H](CO)NC(=O)[C@@H](NC(=O)[C@H](CC(=O)O)NC(=O)[C@H](CO)NC(=O)[C@@H](NC(=O)[C@](C)(Cc1ccccc1)NC(=O)[C@@H](NC(=O)CNC(=O)[C@H](CCC(N)=O)NC(=O)C(C)(C)NC(=O)[C@@H](N)Cc1c[nH]cn1)[C@@H](C)O)[C@@H](C)O)C(C)C)C(C)C)C(=O)N[C@@H](C)C(=O)N[C@@H](CC(N)=O)C(=O)N[C@H](C(N)=O)[C@@H](C)O [Peptide 204] (H-H[Aib]QGT[αMeF]TSDVSK[αMeF]LDSRAAK([AEEA-AEEA-γGlu-C18 diacid])DFVQWIANT-NH2; N-terminus assumed)

Compound: CC[C@H](C)[C@H](NC(=O)[C@H](Cc1c[nH]c2ccccc12)NC(=O)[C@H](CCCCNC(=O)CC[C@H](NC(=O)CCCCCCCCCCCCCCCCC(=O)O)C(=O)O)NC(=O)[C@@H](NC(=O)[C@H](Cc1ccccc1)NC(=O)[C@H](CC(=O)O)NC(=O)[C@H](CCC(N)=O)NC(=O)[C@H](C)NC(=O)[C@H](C)NC(=O)[C@H](CCC(N)=O)NC(=O)[C@H](CO)NC(=O)[C@H](CC(=O)O)NC(=O)[C@H](CC(C)C)NC(=O)[C@](C)(Cc1ccccc1)NC(=O)[C@H](CCCCN)NC(=O)[C@H](CO)NC(=O)[C@@H](NC(=O)[C@H](CC(=O)O)NC(=O)[C@H](CO)NC(=O)[C@@H](NC(=O)[C@H](Cc1ccccc1)NC(=O)[C@@H](NC(=O)CNC(=O)[C@H](Cc1c[nH]cn1)NC(=O)C(C)(C)NC(=O)[C@@H](N)Cc1c[nH]cn1)[C@@H](C)O)[C@@H](C)O)C(C)C)C(C)C)C(=O)N[C@@H](C)C(=O)N[C@@H](CC(N)=O)C(=O)N[C@H](C(N)=O)[C@@H](C)O [Peptide 346]
EC50 [1, 3]: 203 pM
% Relative Potency Ratio ([2]; Table 8): 0.1
EC50 [2, 4]: 7320 pM

EC50 [1, 5]: 6920 pM
EC50 ([2]; Table 9, peptides modified at position 10, CHO cells, read-out: hGLP-1R EC50): 312 pM
% Relative Potency Ratio ([2]; Table 9): 43.8
Compound: CC[C@H](C)[C@H](NC(=O)C(C)(C)NC(=O)[C@H](CCC(N)=O)NC(=O)[C@@H](NC(=O)[C@](C)(Cc1ccccc1)NC(=O)[C@H](CC(=O)O)NC(=O)[C@H](CCC(N)=O)NC(=O)[C@H](C)NC(=O)[C@H](C)NC(=O)[C@H](CCCNC(=N)N)NC(=O)[C@H](CO)NC(=O)[C@H](CC(=O)O)NC(=O)[C@H](CC(C)C)NC(=O)[C@](C)(Cc1ccccc1)NC(=O)[C@H](CCCCN)NC(=O)[C@H](CO)NC(=O)[C@H](CCCCNC(=O)COCCOCCNC(=O)COCCOCCNC(=O)CC[C@H](NC(=O)CCCCCCCCCCCCCCCCC(=O)O)C(=O)O)NC(=O)[C@H](CC(=O)O)NC(=O)[C@H](CO)NC(=O)[C@@H](NC(=O)[C@](C)(Cc1ccccc1)NC(=O)[C@H](CO)NC(=O)CNC(=O)[C@H](Cc1c[nH]cn1)NC(=O)C(C)(C)NC(=O)[C@@H](N)Cc1c[nH]cn1)[C@@H](C)O)C(C)C)C(=O)N[C@@H](C)C(=O)N[C@@H](CC(N)=O)C(=O)N[C@H](C(N)=O)[C@@H](C)O [Peptide 392] (H-H[Aib]HGS[αMeF]TSDK([AEEA-AEEA-γGlu-C18 diacid])SK[αMeF]LDSRAAQD[αMeF]VQ[Aib]IANT-NH2)

EC50 [1, 5]: 11.8 pM
% Relative Potency Ratio ([2]; Table 9): 40.2
Compound: CCCCCCCCCCCCCCCC(=O)N[C@@H](CCC(=O)NCCOCCOCCC(=O)NCCOCCOCCC(=O)NCCCC[C@H](NC(=O)[C@H](CC(=O)O)NC(=O)[C@H](CO)NC(=O)[C@@H](NC(=O)[C@](C)(Cc1ccccc1)NC(=O)[C@H](CO)NC(=O)CNC(=O)[C@H](CCC(N)=O)NC(=O)C(C)(C)NC(=O)[C@@H](N)Cc1c[nH]cn1)[C@@H](C)O)C(=O)N[C@@H](CO)C(=O)N[C@@H](CCCCN)C(=O)N[C@H](C(=O)N[C@@H](CC(C)C)C(=O)N[C@@H](CC(=O)O)C(=O)N[C@@H](CO)C(=O)N[C@@H](CCCNC(=N)N)C(=O)N[C@@H](C)C(=O)N[C@@H](C)C(=O)N[C@@H](CCC(N)=O)C(=O)N[C@@H](CC(=O)O)C(=O)N[C@@](C)(Cc1ccccc1)C(=O)N[C@H](C(=O)N[C@@H](CCC(=O)O)C(=O)N[C@@H](Cc1c[nH]c2ccccc12)C(=O)N[C@H](C(=O)N[C@@H](C)C(=O)N[C@@H](CC(N)=O)C(=O)N[C@H](C(N)=O)[C@@H](C)O)[C@@H](C)CC)C(C)C)[C@@H](C)CC)C(=O)O [Peptide 396] (H-H[Aib]QGS[αMeF]TSDK([PEG2-PEG2-γGlu-Palmitoyl])SKILDSRAAQD[αMeF]VEWIANT-NH2)

EC50 ([1]; Table 10, peptides modified at position 13, geometric mean, CHO cells, read-out: hGluc-R EC50): 21.8 pM
EC50 ([2]; Table 10, peptides modified at position 13, CHO cells, read-out: hGLP-1R EC50): 5.65 pM
% Relative Potency Ratio ([2]; Table 10): 7.6
Compound: CCCCCCCCCCCCCCCCCC(=O)N[C@@H](CCC(=O)N[C@@H](CCC(=O)NCCOCCOCCC(=O)NCCOCCOCCC(=O)NCCCC[C@H](NC(=O)[C@H](CCCCN)NC(=O)[C@H](CO)NC(=O)[C@@H](NC(=O)[C@H](CC(=O)O)NC(=O)[C@H](CO)NC(=O)[C@@H](NC(=O)[C@](C)(Cc1ccccc1)NC(=O)[C@H](CO)NC(=O)CNC(=O)[C@H](CCC(N)=O)NC(=O)[C@H](CO)NC(=O)[C@@H](N)Cc1c[nH]cn1)[C@@H](C)O)C(C)C)C(=O)N[C@@H](CC(C)C)C(=O)N[C@@H](CC(=O)O)C(=O)N[C@@H](CO)C(=O)N[C@H](C(=O)N[C@@H](C)C(=O)N[C@@H](C)C(=O)N[C@@H](CCC(N)=O)C(=O)N[C@@H](CC(=O)O)C(=O)N[C@@](C)(Cc1ccccc1)C(=O)N[C@H](C(=O)N[C@@H](CCC(=O)O)C(=O)N[C@@H](Cc1c[nH]cn1)C(=O)N[C@@H](CC(C)C)C(=O)N[C@@H](C)C(=O)N[C@@H](CC(N)=O)C(=O)N[C@H](C(N)=O)[C@@H](C)O)C(C)C)C(C)(C)CCNC(=N)N)C(=O)O)C(=O)O [Peptide 404, HSQGS(αMePhe)TSDVSKK((PEG)2-(PEG)2-γE-γE-Stearoyl)13LDS(ß-dimethylArg)AAQD(αMePhe)VEHLANT-amide]

Compound: CC[C@H](C)[C@H](NC(=O)[C@H](Cc1c[nH]c2ccccc12)NC(=O)[C@H](CCCCNC(=O)CC[C@H](NC(=O)CC[C@H](NC(=O)CCOCCOCCNC(=O)CC[C@H](NC(=O)CC[C@H](NC(=O)CCCCCCCCCCCCCCCCCCC(=O)O)C(=O)O)C(=O)O)C(=O)O)C(=O)O)NC(=O)[C@@H](NC(=O)[C@H](Cc1ccccc1)NC(=O)[C@H](CC(=O)O)NC(=O)[C@H](CCC(N)=O)NC(=O)[C@H](C)NC(=O)[C@H](C)NC(=O)[C@H](CCC(N)=O)NC(=O)[C@H](CO)NC(=O)[C@H](CC(=O)O)NC(=O)[C@H](CC(C)C)NC(=O)[C@](C)(Cc1ccccc1)NC(=O)[C@H](CCCCN)NC(=O)[C@H](CO)NC(=O)[C@@H](NC(=O)[C@H](CC(=O)O)NC(=O)[C@H](CO)NC(=O)[C@@H](NC(=O)[C@](C)(Cc1ccccc1)NC(=O)[C@H](CO)NC(=O)CNC(=O)[C@H](Cc1c[nH]cn1)NC(=O)C(C)(C)NC(=O)[C@@H](N)Cc1c[nH]cn1)[C@@H](C)O)C(C)C)C(C)C)C(=O)N[C@@H](C)C(=O)N[C@@H](CC(N)=O)C(=O)N[C@H](C(N)=O)[C@@H](C)O [Peptide 357]
EC50 [1, 3]: 550 pM
% Relative Potency Ratio ([2]; Table 8): 1.2
EC50 [2, 4]: 917 pM

EC50 ([1]; Table 6, modification at position 17, CHO cells expressing hGCGR, geometric mean, read-out: hGluc-R EC50): 18.2 pM
EC50 ([2]; Table 6, modification at position 17, CHO cells expressing hGLP-1R, read-out: hGLP-1R EC50): 2.12 pM
% Relative Potency Ratio ([2]; Table 6): 17.0
Compound: CCCCCCCCCCCCCCCCCC(=O)N[C@@H](CCC(=O)N[C@@H](CCC(=O)NCCOCCOCCC(=O)NCCOCCOCCC(=O)NCCCC[C@H](NC(=O)[C@H](CO)NC(=O)[C@H](CC(=O)O)NC(=O)[C@H](CC(C)C)NC(=O)[C@@H](NC(=O)[C@H](CCCCN)NC(=O)[C@H](CO)NC(=O)[C@@H](NC(=O)[C@H](CC(=O)O)NC(=O)[C@H](CO)NC(=O)[C@@H](NC(=O)[C@](C)(Cc1ccccc1)NC(=O)[C@H](CO)NC(=O)CNC(=O)[C@H](CCC(N)=O)NC(=O)C(C)(C)NC(=O)[C@@H](N)Cc1c[nH]cn1)[C@@H](C)O)C(C)C)C(c1ccccc1)c1ccccc1)C(=O)N[C@@H](C)C(=O)N[C@@H](C)C(=O)N[C@@H](CCC(N)=O)C(=O)N[C@@H](CC(=O)O)C(=O)N[C@@](C)(Cc1ccccc1)C(=O)N[C@H](C(=O)N[C@@H](CCC(=O)O)C(=O)NC(C)(C)C(=O)N[C@@H](CC(C)C)C(=O)N[C@@H](CCC(=O)O)C(=O)N[C@@H](C)C(=O)NCC(=O)NCC(N)=O)C(C)C)C(=O)O)C(=O)O [Peptide 44] (H-H[Aib]QGS[αMeF]TSDVSK[Dip]LDSK([PEG2-PEG2-γGlu-γGlu-Stearoyl])AAQD[αMeF]VE[Aib]LEAGG-NH2; N-terminus assumed)
